Laboratory results as given in article PMC9663970, “New triazole-substituted triterpene derivatives exhibiting anti-RSV activity: synthesis, biological evaluation, and molecular modeling” (Beilstein Journal of Organic Chemistry, 2022).
Where two headings read alike, the source gives them in different places.

What was measured:
RSV = experiment: Anti-RSV activity in RSV-infected A549 cells (MTT and SRB); format: cell-based, RSV A strain (line A2); settings: for Therapeutic index (TI) = IC50(A549)/EC50(A549 + RSV): IC50 in A549; for Therapeutic index (TI) = IC50(B16F10)/EC50(A549 + RSV): IC50 in B16F10; for Therapeutic index (TI) = IC50(HEP2)/EC50(A549 + RSV): IC50 in HEP2; for Therapeutic index (TI) = IC50(VERO)/EC50(A549 + RSV): IC50 in VERO
VERO cells = experiment: cells; format: cell-based; settings: for IC50: Chlorocebus sabaeus, 96 h, read-out: IC50 ± SD, concentration toxic to 50% of non-infected VERO cells
B16F10 cells = experiment: cells; format: cell-based; settings: for IC50: Mus musculus, read-out: IC50 ± SD, concentration toxic to 50% of non-infected B16F10 cells
SARS-CoV [1] = settings: cited from earlier work
HIV protease = test system: HIV protease; parameters: method as in PMID 10071849; settings: read-out: IC50 HIV protease inhibition; cited from earlier work
HEP2 cells = experiment: cells; format: cell-based; settings: for IC50: Homo sapiens, read-out: IC50 ± SD, concentration toxic to 50% of non-infected HEP2 cells
A549 cells = experiment: cells; format: cell-based; settings: for IC50: Homo sapiens, read-out: IC50 ± SD, concentration toxic to 50% of non-infected A549 cells
RSV protein F gene = format: cell-based; settings: 12.5 µM, RSV-infected A549 cells, 96 h, compared to control
SARS-CoV [2] = settings: in vitro in Vero cells; read-out: IC50 against SARS-CoV; cited from earlier work
[3] = human respiratory syncytial virus, A549, A549+RSV, treated 4 hours after viral infection, 96 h, read-out: EC50 ± SD, concentration that inhibits RSV replication by 50%
[4] = human respiratory syncytial virus, A549, read-out: EC50 ± SD, concentration that inhibits RSV replication by 50%, A549+RSV, treated 4 hours after viral infection, 96 h
[5] = MTT test, non-infected VERO cells
[6] = B16-F10, MTT test, 96 h, non-infected B16F10 cells
[7] = HEp-2, MTT test, 96 h, non-infected HEP2 cells
[8] = MTT test, 96 h, non-infected A549 cells

Row | SMILES | EC50 (RSV; [3]) [µM] | IC50 (VERO cells; Vero) [µM] | IC50 (B16F10 cells; B16-F10, 96 h) [µM] | Therapeutic index (TI) = IC50(A549)/EC50(A549 + RSV) (RSV) | Therapeutic index (TI) = IC50(B16F10)/EC50(A549 + RSV) (RSV) | Therapeutic index (TI) = IC50(HEP2)/EC50(A549 + RSV) (RSV) | Therapeutic index (TI) = IC50(VERO)/EC50(A549 + RSV) (RSV) | EC50 (RSV; [4]) [µM] | IC50 (HEP2 cells; HEp-2, 96 h) [µM] | IC50 (A549 cells; A549, 96 h) [µM] | also measured
1 | NC(=O)c1ncn([C@@H]2O[C@H](CO)[C@@H](O)[C@H]2O)n1 [RBV, ribavirin, reference compound] | 4.9 ± 1.4 | – | – | – | – | – | – | – | – | – | –
2 | C=C(C)[C@@H]1CC[C@]2(C(=O)O)CC[C@]3(C)[C@H](CC[C@@H]4[C@@]5(C)CC[C@H](O)C(C)(C)[C@@H]5CC[C@]43C)[C@@H]12 [compound 1, betulinic acid, reference compound] | – | 14.2 ± 0.2 | 22.7 ± 0.8 | 3.4 | 4.3 | 5.3 | 2.7 | 5.3 ± 0.7 | 28 ± 0.3 | 17.8 ± 0.6 | SI anti-SARS-CoV activity (SARS-CoV [1]): > 10; EC50 (SARS-CoV [1]; read-out: EC50 anti-SARS-CoV activity): 10 µM; IC50 (HIV protease): 8 µM
3 | C[C@H]1[C@H](C)CC[C@]2(C(=O)O)CC[C@]3(C)C(=CC[C@@H]4[C@@]5(C)CC[C@H](O)C(C)(C)[C@@H]5CC[C@]43C)[C@H]12 [compound 2, ursolic acid, reference compound] | – | 12.9 ± 0.8 | 16.2 ± 0.8 | 1.5 | 0.9 | 1.6 | 0.8 | 17.3 ± 0.9 | 26.9 ± 0.4 | 26.7 ± 0.9 | IC50 (HIV protease): 9 µM
4 | C=C(C)[C@@H]1CC[C@]2(C(=O)O)CC[C@]3(C)[C@H](CC[C@@H]4[C@@]5(C)CC[C@H](OC(C)=O)C(C)(C)[C@@H]5CC[C@]43C)[C@@H]12 [compound 3] | – | 13.4 ± 2.1 | 10.2 ± 1.1 | 1.2 | 0.2 | 0.3 | 0.3 | 44.4 ± 0.5 | 11.5 ± 1.5 | 53 ± 0.9 | –
5 | CC(=O)OC1CCC2(C)C(CCC3(C)C2CC=C2C4C(C)C(C)CCC4(C(=O)O)CCC23C)C1(C)C (stereo not drawn) [compound 4] | – | – | – | 9.3 | 0.9 | 1.2 | 0.9 | 14.3 | – | – | IC50 (VERO cells; [5]): 12.6 ± 1.2 µM; IC50 (B16F10 cells; [6]): 12.4 ± 0.8 µM; EC50 (RSV; read-out: EC50 ± SD, concentration that inhibits RSV replication by 50%, A549+RSV, treated 4 hours after viral infection, 96 h): 14.3 ± 0.6 µM; IC50 (HEP2 cells; [7]): 17.2 ± 0.9 µM; IC50 (A549 cells; [8]): 133 ± 1.1 µM
6 | C#CCOC(=O)[C@]12CC[C@@H](C(=C)C)[C@@H]1[C@H]1CC[C@@H]3[C@@]4(C)CC[C@H](OC(C)=O)C(C)(C)[C@@H]4CC[C@@]3(C)[C@]1(C)CC2 [compound 5] | 0.6 ± 0.8 | 14.5 ± 0.2 | 25.6 ± 0.5 | 148.0 | 42.7 | 30.7 | 24.2 | – | 18.4 ± 0.6 | 88.8 ± 1 | –
7 | C#CCOC(=O)[C@]12CC[C@@H](C)[C@H](C)[C@H]1C1=CC[C@@H]3[C@@]4(C)CC[C@H](OC(C)=O)C(C)(C)[C@@H]4CC[C@@]3(C)[C@]1(C)CC2 [compound 6] | 36.2 ± 0.9 | – | – | 1.9 | 0.8 | 0.6 | 0.7 | – | – | – | IC50 (VERO cells; [5]): 26.1 ± 0.6 µM; IC50 (B16F10 cells; [6]): 29 ± 1.1 µM; IC50 (HEP2 cells; [7]): 20.3 ± 0.4 µM; IC50 (A549 cells; [8]): 67.2 ± 0.5 µM
8 | C=C(C)[C@@H]1CC[C@]2(C(=O)OCc3cn(-c4cccc([N+](=O)[O-])c4)nn3)CC[C@]3(C)[C@H](CC[C@@H]4[C@@]5(C)CC[C@H](OC(C)=O)C(C)(C)[C@@H]5CC[C@]43C)[C@@H]12 [compound 7] | 0.314 | 18.9 ± 1.4 | 18.8 ± 0.7 | 142.3 | 62.7 | 79.3 | 63.0 | – | 23.8 ± 2 | 42.7 ± 0.6 | EC50 (RSV; A549+RSV, treated 4 hours after viral infection, 96 h, read-out: EC50 ± SD, concentration that inhibits RSV replication by 50%): 0.3 ± 0.1 µM
9 | CC(=O)OC1CCC2(C)C(CCC3(C)C2CC=C2C4C(C)C(C)CCC4(C(=O)OCc4cn(-c5cccc([N+](=O)[O-])c5)nn4)CCC23C)C1(C)C (stereo not drawn) [compound 8] | – | 21.6 ± 0.9 | 9.8 ± 0.6 | – | 196.0 | 398.0 | 432.0 | 0.053 | 19.9 ± 1.2 | 59.2 ± 0.9 | Cytotoxicity (in words) (VERO cells; non-infected VERO cells): low cytotoxicity; Reduction of RSV protein F gene expression (RSV protein F gene): approximately 65%; Cytotoxicity (in words) (B16F10 cells; non-infected B16F10 cells): low cytotoxicity; Cytotoxicity (in words) (HEP2 cells; non-infected HEP2 cells): low cytotoxicity; Cytotoxicity (in words) (A549 cells; non-infected A549 cells): low cytotoxicity
10 | CC1(C)[C@@H](O[C@H]2O[C@H](C(=O)O)[C@@H](O)[C@H](O)[C@H]2O[C@@H]2O[C@H](C(=O)O)[C@@H](O)[C@H](O)[C@H]2O)CC[C@]2(C)[C@H]3C(=O)C=C4[C@@H]5C[C@@](C)(C(=O)O)CC[C@]5(C)CC[C@@]4(C)[C@]3(C)CC[C@@H]12 [glycyrrhizic acid] | – | – | – | – | – | – | – | – | – | – | IC50 (SARS-CoV [2]): 365 µM
